# Experimental data published in ChEMBL document CHEMBL5728039, “Inhibitors of Bruton's tyrosine kinase and method of their use” (2020).
# Target: Tyrosine-protein kinase BTK (Homo sapiens, UniProt Q06187)
# Experiment: TBD: TBD
# Chain of Tyrosine-protein kinase BTK (Q06187 whole entry): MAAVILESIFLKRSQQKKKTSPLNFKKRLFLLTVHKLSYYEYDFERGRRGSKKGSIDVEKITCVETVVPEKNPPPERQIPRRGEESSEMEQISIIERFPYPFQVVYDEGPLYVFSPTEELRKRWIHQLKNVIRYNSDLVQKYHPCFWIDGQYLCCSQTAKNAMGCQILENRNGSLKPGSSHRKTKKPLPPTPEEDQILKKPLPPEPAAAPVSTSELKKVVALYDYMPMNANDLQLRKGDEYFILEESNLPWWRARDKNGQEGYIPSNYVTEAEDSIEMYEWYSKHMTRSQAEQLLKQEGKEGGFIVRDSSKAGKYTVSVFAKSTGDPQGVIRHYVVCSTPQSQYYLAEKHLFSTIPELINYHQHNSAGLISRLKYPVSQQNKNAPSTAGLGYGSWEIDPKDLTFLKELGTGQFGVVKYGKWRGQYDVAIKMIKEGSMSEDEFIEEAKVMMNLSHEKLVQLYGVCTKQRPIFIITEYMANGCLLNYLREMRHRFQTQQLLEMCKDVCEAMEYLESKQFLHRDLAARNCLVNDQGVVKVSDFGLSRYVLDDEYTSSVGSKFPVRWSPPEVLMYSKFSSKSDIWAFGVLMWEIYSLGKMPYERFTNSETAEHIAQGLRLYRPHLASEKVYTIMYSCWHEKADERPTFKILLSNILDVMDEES
row,IC50 [nM],SMILES
1,> 1000,C=CC(=O)N1CCC[C@@H](NC(=O)c2sc3nccc4c3c2NC(=O)N4c2ccc(Oc3cccnn3)cc2)C1
2,25.1,Cc1cc(Oc2ccccc2)ccc1N1C(=O)Nc2c(C(=O)N[C@@H]3CCCOC3)sc3nccc1c23
3,398,CN1CC(NC(=O)c2sc3nccc4c3c2NC(=O)N4c2ccc(Oc3ccccc3)cc2)CC1=O (stereo not drawn)
